From patent US10900063B2, “Measurement of Lp-PLA2 activity” (ASAHI KASEI PHARMA CORPORATION, priority 2016, dated 2021)

Tests used:
Lp-PLA2 = molecular target: T1, Lp-PLA2 (Homo sapiens, UniProt Q13093); assay: Lp-PLA2 activity measurement in serum/plasma with reagents of the invention (PAF substrate, lyso-PAF-PLD, choline oxidase, peroxidase colorimetry); type: biochemical; conditions: for Relative activity: PAF(C16) = 100; for values for absorbance change (sensitivity) compared with DAOS: Trinder reagent with 4-AA
T1 construct: Individual serum No. 16, individual serum No. 78; from tissue; host or cells: serum and plasma (individual sera, pooled sera, heparin and citrated pooled plasma)
T1 sequence (Q13093 22-441): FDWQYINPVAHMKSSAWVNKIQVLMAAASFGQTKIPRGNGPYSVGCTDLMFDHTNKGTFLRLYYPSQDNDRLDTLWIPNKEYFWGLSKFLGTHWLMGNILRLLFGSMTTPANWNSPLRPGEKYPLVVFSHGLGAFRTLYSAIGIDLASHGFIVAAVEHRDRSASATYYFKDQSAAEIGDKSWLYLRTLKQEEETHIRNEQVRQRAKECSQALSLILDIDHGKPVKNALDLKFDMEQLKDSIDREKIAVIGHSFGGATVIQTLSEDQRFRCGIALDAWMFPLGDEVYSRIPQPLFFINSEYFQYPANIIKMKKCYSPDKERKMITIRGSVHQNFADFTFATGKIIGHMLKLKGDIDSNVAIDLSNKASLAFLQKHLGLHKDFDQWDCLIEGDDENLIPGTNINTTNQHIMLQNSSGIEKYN
Experimental: Unless otherwise specified, in these examples the Method 1 described under 1) below is used for calculating Lp-PLA2 activity values. In these examples, (nmol/min/mL) is sometimes expressed as (U/L).
This is calculated by the following formula based on the absorbance change per minute (ΔmAbs/min) as calculated from absorbance at the measuring points and the millimolar extinction coefficient (ε=36) of TODB at 546 nm.
(§1) 4 μL of the sample was mixed with 160 μL of the R1 reagent, and incubated for 5 minutes at 37° C. (measuring points 1 to 16), after which 40 μL of the R2 reagent was added to initiate a reaction (measuring point 17). The absorbance of water (blank) at the same measuring points was subtracted from the absorbance of the sample about 3.6 to 4.5 minutes after the reaction was initiated by addition of the R2 reagent (measuring points 30 to 33) to calculate the absorbance change per minute (ΔmAbs/min), and the Lp-PLA2 activity value (nmol/min/mL) was calculated according to the previous formula.
[…] was mixed with 150 μL of the R1 reagent, and incubated for 5 minutes at 37° C. (measuring points 1 to 15), after which 100 μL of the R2 reagent was added to initiate a reaction (measuring point 16). The absorbance of water (blank) at the same measuring points was subtracted from the absorbance of the sample about 2 to 3 minutes after the reaction was initiated by addition of the R2 reagent (measuring points 23 to 26) to calculate the absorbance change per minute (ΔmAbs/min), and the Lp-PLA2 activity value (nmol/min/mL) was calculated according to the previous formula. The values for absorbance change per minute (sensitivity) (ΔmAbs/min) and the Lp-PLA2 activity values (nmol/min/mL) at each pH are shown in Tables 1 and 2.
(§2) 5 μL of sample was mixed with 150 μL of the R1 reagent, and incubated for 5 minutes at 37° C. (measuring points 1 to 15), after which 100 μL of the R2 reagent was added to initiate a reaction (measuring point 16). The absorbance of water (blank) at the same measuring points was subtracted from the absorbance of the sample about 3.5 to 4.5 minutes after the reaction was initiated by addition of the R2 reagent (measuring points 27 to 30) to calculate the absorbance change per minute (ΔmAbs/min), and the Lp-PLA2 activity value (nmol/min/mL) was calculated according to the previous formula. The values for absorbance change per minute (sensitivity) (ΔmAbs/min) and Lp-PLA2 activity (nmol/min/mL) and the relative activity for each substrate given 100 as the Lp-PLA2 activity value for PAF(C16) are shown in Tables 19 to 24.
Each sample was mixed with 160 μL of the R1 reagent, and incubated for 5 minutes at 37° C., (measuring points 1 to 15), after which 40 μL of the R2 reagent was added to initiate the reaction (measuring point 16). The absorbance of water (blank) at the same measuring points was subtracted from the absorbance of the sample about 3.5 to 4.5 minutes after the reaction was initiated by addition of the R2 reagent (measuring points 27 to 30) to calculate the absorbance change per minute (ΔmAbs/min), and the Lp-PLA2 activity value (nmol/min/mL) was calculated according to the previous formula. […]
as §1, with “(measuring” for “4 μL of the sample was mixed with 160 μL of the R1 reagent, and incubated for 5 minutes at 37° C. (measuring”, “100” for “40”, “3.5” for “3.6”, “29” for “30”, “32)” for “33)”

rLp-PLA2 = molecular target: T2, rLp-PLA2 (Homo sapiens, UniProt Q13093, I42M); assay: Lp-PLA2 activity measurement with reagents of the invention, recombinant Lp-PLA2 as sample; type: biochemical; conditions: Example 9, sample rLp-PLA2 (0.017 mg/mL)
T2 construct: histidine tag (from vector pET-19b) (N); made in house; host or cells: E. coli BL21(DE3), plasmid Lp-PLA2/pET-19b
T2 sequence (Q13093 42-441 I42M): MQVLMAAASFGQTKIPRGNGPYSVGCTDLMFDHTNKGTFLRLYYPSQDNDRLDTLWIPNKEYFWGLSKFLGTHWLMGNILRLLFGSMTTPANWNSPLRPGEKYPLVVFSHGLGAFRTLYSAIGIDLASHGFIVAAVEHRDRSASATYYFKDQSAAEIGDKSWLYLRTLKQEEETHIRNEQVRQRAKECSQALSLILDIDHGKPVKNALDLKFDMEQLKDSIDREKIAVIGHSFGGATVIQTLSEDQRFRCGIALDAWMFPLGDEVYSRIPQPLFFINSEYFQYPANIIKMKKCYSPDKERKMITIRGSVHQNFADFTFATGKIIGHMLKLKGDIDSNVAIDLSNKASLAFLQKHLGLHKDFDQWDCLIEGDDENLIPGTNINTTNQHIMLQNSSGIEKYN
Experimental: The recombinant Lp-PLA2 (rLp-PLA2) used in these examples was prepared in accordance with Reference Examples 4 to 6 based on the information disclosed in J. Biol. Chem., Oct. 27, 1995, No. 43, Vol. 270, pp. 25481-25487.
A gene optimized for E. coli (matched to E. coli codon usage) was synthesized (GenScript (NJ, USA)) based on the sequence data for a human Lp-PLA2 gene. Using the synthesized DNA as a template, a roughly 1200 bp PCR product was obtained by PCR using KOD FX (Toyobo Co., Ltd.) using as the sense primer the nucleotide sequence of SEQ ID NO: 5 in which the 42nd isoleucine was changed to the sequence of the initial methionine, with the nucleotide sequence of SEQ ID NO: 6 as the antisense primer. The resulting PCR product was digested with NdeI (Takara Bio Inc.) and BamHI (Takara Bio Inc.), and inserted into the NdeI-BamHI site of the expression vector pET-19b (Novagen) to obtain an Lp-PLA2/pET-19b expression plasmid. This expression plasmid was transformed into One shot BL21(DE3) Chemically Competent E. coli, to obtain a transformant called Lp-PLA2/pET-19b/BL21(DE3) comprising a recombinant vector containing a polynucleotide consisting of a nucleotide sequence encoding Lp-PLA2 with a histidine tag from the vector added at the N-terminus.
as §2

[1] = Example 9, 10 mM substrate in R2, sample Citrated pooled plasma
[2] = Example 9, 10 mM substrate in R2, sample Heparin pooled plasma
[3] = Example 9, 10 mM substrate in R2, sample Individual serum 16
[4] = Example 9, 10 mM substrate in R2, sample Pooled serum C
[5] = Example 9, 10 mM substrate in R2, sample Pooled serum J042
[6] = Example 10, 0.03% Trinder reagent in R1 with 4-AA, sample Individual serum No16
[7] = Example 10, 0.03% Trinder reagent in R1 with 4-AA, sample Individual serum No78
[8] = Example 10, 0.03% Trinder reagent in R1 with 4-AA, sample Pooled serum J042
[9] = Example 4, 50 mM buffer pH 7.5 in R1 and R2, sample Individual serum 16
[10] = Example 4, 50 mM buffer pH 7.5 in R1 and R2, sample Individual serum 78

Row | Structure (SMILES) | Lp-PLA2 activity value (Lp-PLA2; [6]) [nmol/min/mL] | absorbance change per minute (sensitivity) (Lp-PLA2; [6]) | Lp-PLA2 activity value (Lp-PLA2; [7]) [nmol/min/mL] | absorbance change per minute (sensitivity) (Lp-PLA2; [7]) | Lp-PLA2 activity value (Lp-PLA2; [8]) [nmol/min/mL] | absorbance change per minute (sensitivity) (Lp-PLA2; [8]) | Lp-PLA2 activity value (Lp-PLA2; [9]) [nmol/min/mL] | absorbance change per minute (sensitivity) (Lp-PLA2; [9]) | Lp-PLA2 activity value (Lp-PLA2; [10]) [nmol/min/mL] | absorbance change per minute (sensitivity) (Lp-PLA2; [10]) | also measured
1 | CCCCCCCCCCCCCCCC(=O)OC[C@H](COP(=O)([O-])OCC[N+](C)(C)C)OC(C)=O [1-Palmitoyl-2-acetyl-sn-glycero-PC, 1-Palmitoyl-2-acetyl-sn-glycero-3-phosphocholine] |  |  |  |  |  |  |  |  |  |  | Lp-PLA2 activity value (Lp-PLA2; [1]): 34.4 nmol/min/mL; absorbance change per minute (sensitivity) (Lp-PLA2; [1]): 24.3 ΔmAbs/min; Lp-PLA2 activity value (Lp-PLA2; [2]): 44.1 nmol/min/mL; absorbance change per minute (sensitivity) (Lp-PLA2; [2]): 31.1 ΔmAbs/min; Lp-PLA2 activity value (Lp-PLA2; [3]): 82.3 nmol/min/mL; absorbance change per minute (sensitivity) (Lp-PLA2; [3]): 58.1 ΔmAbs/min; Lp-PLA2 activity value (Lp-PLA2; [4]): 44.9 nmol/min/mL; absorbance change per minute (sensitivity) (Lp-PLA2; [4]): 31.7 ΔmAbs/min; Lp-PLA2 activity value (Lp-PLA2; [5]): 45.2 nmol/min/mL; absorbance change per minute (sensitivity) (Lp-PLA2; [5]): 31.9 ΔmAbs/min; Relative activity (Lp-PLA2; Example 9, sample Citrated pooled plasma): 103%; Relative activity (Lp-PLA2; Example 9, sample Heparin pooled plasma): 99%; Relative activity (Lp-PLA2; Example 9, sample Individual serum 16): 87%; Relative activity (Lp-PLA2; Example 9, sample Pooled serum C): 110%; Relative activity (Lp-PLA2; Example 9, sample Pooled serum J042): 111%; Lp-PLA2 activity value (rLp-PLA2; 10 mM substrate in R2): 98.7 nmol/min/mL; absorbance change per minute (sensitivity) (rLp-PLA2; 10 mM substrate in R2): 69.7 ΔmAbs/min; Relative activity (rLp-PLA2; PAF(C16) = 100): 75%
2 | CCN(CC(O)CS(=O)(=O)[O-])c1cc(OC)cc(OC)c1.[Na+] (centres unmarked) [DAOS, N-ethyl-N-(2-hydroxy-3-sulfopropyl)-3,5-dimethoxyaniline sodium salt] | 33.7 | 14.4 ΔmAbs/min | 14.5 | 6.2 ΔmAbs/min | 14.1 | 6.0 ΔmAbs/min |  |  |  |  | 
3 | O=S(=O)(O)CCN1CCN(CCO)CC1 [HEPES, 2-[4-(2-Hydroxyethyl)-1-piperazinyl]ethanesulfonic acid] |  |  |  |  |  |  | 76.4 | 32.6 ΔmAbs/min | 36.5 | 15.6 ΔmAbs/min | 
4 | O=S(=O)(O)CCCN1CCOCC1 [MOPS, 3-Morpholinopropanesulfonic acid] |  |  |  |  |  |  | 81.3 | 34.7 ΔmAbs/min | 39.4 | 16.8 ΔmAbs/min | 
5 | O=S(=O)(O)CCN1CCN(CCS(=O)(=O)O)CC1 [PIPES, Piperazine-1,4-bis(2-ethanesulfonic acid)] |  |  |  |  |  |  | 89.5 | 38.2 ΔmAbs/min | 43.1 | 18.4 ΔmAbs/min | 
6 | O=P(O)(O)O [Pi-K, potassium phosphate] |  |  |  |  |  |  | 84.3 | 36.0 ΔmAbs/min | 37.5 | 16.0 ΔmAbs/min | 
7 | O=S(=O)(O)CCNC(CO)(CO)CO [TES, N-tris(hydroxymethyl)methyl-2-aminoethanesulfonic acid] |  |  |  |  |  |  | 75.7 | 32.3 ΔmAbs/min | 37.5 | 16.0 ΔmAbs/min | 
8 | Cc1cccc(N(CCCCS(=O)(=O)[O-])CCCCS(=O)(=O)[O-])c1.[Na+].[Na+] [TODB, N,N-bis(4-sulfobutyl)-3-methylaniline, disodium salt] | 71.0 | 30.3 ΔmAbs/min | 30.0 | 12.8 ΔmAbs/min | 31.9 | 13.6 ΔmAbs/min |  |  |  |  | values for absorbance change (sensitivity) compared with DAOS (Lp-PLA2; Example 10): about twice those obtained with DAOS
9 | CCN(CC(O)CS(=O)(=O)[O-])c1cccc(C)c1.O.O.[Na+] (centres unmarked) [TOOS, N-ethyl-N-(2-hydroxy-3-sulfopropyl)-3-methylaniline, sodium salt, dihydrate] | 69.3 | 29.6 ΔmAbs/min | 28.1 | 12.0 ΔmAbs/min | 30.9 | 13.2 ΔmAbs/min |  |  |  |  | values for absorbance change (sensitivity) compared with DAOS (Lp-PLA2; Example 10): about twice those obtained with DAOS
10 | NC(CO)(CO)CO [Tris, 2-Amino-2-hydroxymethyl-1,3-propanediol] |  |  |  |  |  |  | 99.1 | 42.3 ΔmAbs/min | 44.7 | 19.1 ΔmAbs/min | 
